Among the data in PubChem BioAssay (NCI) are TGI values, retold here.

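Briefly, cells in 96-well plates were exposed to five compound concentrations for 48 h, and endpoints were estimated by linear interpolation. TGI marks complete inhibition of growth.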

What all share (assay): NCI tumour cell line growth inhibition, 48 h
In assay [1] the test system is RXF-631 renal.
The subject of assay [2] is DMS 114 small cell lung.
Assay [3] relates to LXFL 529 NSCLC.
The subject of assay [4] is DLD-1 colon.
In assay [5] the test system is XF 498 CNS.
Assay [6] deals with HOP-18 NSCLC.
The test system of assay [7] is SNB-78 CNS.
The subject of assay [8] is M19-MEL melanoma.
The test system of assay [9] is SN12K1 renal.
Assay [10] relates to P388 leukemia.
The test system of assay [11] is P388/ADR leukemia.

For the molecule `CC(=O)C1CC(C)=CCC12C(=O)Nc1ccccc12` (stereo not drawn), the TGI in assay [1], in [2], in assay [3], in assay [4], in assay [5] and in assay [6] was greater than 100 µM in each case.
Take `Cc1ccc(C(=O)N(C2CCCCC2)C2CCCCC2)cc1N=NN(C)C`: the TGI in assay [3] was found to be 27.8 µM; in assay [4] it was 28.6 µM; in [7], 31.4 µM; in [8], 34 µM.
Regarding `O=C(c1ccc(Cl)cc1)c1ccc(OCC(=O)N2CCN(c3ccccc3)CC2)cc1`, the TGI in [2], in [3], in assay [4], in assay [7], in [5] and in [6] was greater than 100 µM each time. Moreover, the TGI in assay [8] was greater than 100 µM.
As to `COc1ccc2c3c1OC1CC(O)C=CC31CCN(C)C2` (stereo not drawn), the TGI in assay [2] was greater than 150 µM; in assay [9], greater than 150 µM; in assay [10], greater than 150 µM; in assay [4] it was greater than 54.1 µM; in [7], greater than 117 µM; in assay [5], greater than 150 µM. Further, the TGI in [11], in [6] and in assay [8] was greater than 150 µM in each case.
As for `COc1ccc2[nH]c3c(c2c1)CCN(C)CC3`, the TGI in assay [1], in assay [4], in [7], in assay [5], in [6] and in assay [8] was greater than 100 µM each time.
For the molecule `CCCCOC(=O)CNC(=O)OCCCCC#CC#CCCCCOC(=O)NCC(=O)OCCCC`, the TGI in assay [2], in assay [3], in [4], in assay [7], in assay [5] and in assay [6] was greater than 100 µM in each case. For the same molecule, the TGI in assay [8] was greater than 100 µM.
Regarding `CCCC/C=C1\CCC(CN2CCCCC2)C1=O` (stereo not drawn), the TGI in [1] is greater than 65.2 µM; in assay [2] it was 16.1 µM; in assay [3], 3.26 µM; in [4] it was 3.25 µM; in assay [7] it was 27.4 µM; in [5] it was 6.58 µM. Moreover, the TGI in assay [6] was 16.8 µM; in assay [8] it was 34.5 µM.
Take `COC1=CC(=O)c2ccccc2C1(CCC=C(C)C)C1=NC(C)(C)CO1` (stereo not drawn): the TGI in assay [3], in assay [4], in assay [6] and in assay [8] was greater than 100 µM in each case.
On to `CCOC/N=C(/N)NC#N`, for which the TGI in [2], in assay [3], in assay [4], in assay [7], in assay [5] and in assay [6] was greater than 100 µM each time. In addition, in [8], the TGI is greater than 100 µM.
`COc1cccc2cc(C)c(C(=O)c3ccccc3)nc12`: the TGI in assay [1], in [2], in assay [3], in assay [4], in assay [7] and in assay [5] was greater than 100 µM throughout. Besides, the TGI in assay [6] and in [8] was greater than 100 µM each time.
Take `N/N=C(\C(=O)Nc1c(Cl)cc([N+](=O)[O-])cc1Cl)C(c1cnc2ccc([N+](=O)[O-])cc2n1)[N+](=O)[O-]` (stereo not drawn): the TGI in [2], in [4], in [7], in assay [5] and in [8] was greater than 100 µM each time.
Take `CCCCCc1cc(OC(=O)c2c(O)cc(OC)cc2CCCCC)cc(O)c1C(=O)O`: the TGI in assay [2] stood at 33.9 µM; in assay [3], 30.5 µM; in assay [4] it was 26.7 µM; in assay [7], 57.6 µM; in assay [5], 32.5 µM; in assay [8], 33.8 µM.
In the case of `COc1cc(OC)c2c(O)cc(CC(C)O)cc2c1` (stereo not drawn), the TGI in [1], in [2], in assay [3], in assay [4], in assay [7] and in [5] was greater than 100 µM throughout. Besides, the TGI in assay [6] and in [8] was greater than 100 µM in each case.
Regarding `O=C1C(Br)=CC2([N+](=O)[O-])CCNc3c(O)c4c5c(c3C2=C1Br)=NCCC=5C=N4` (stereo not drawn), the TGI in assay [2] came out at 0.545 µM; in assay [9] it was 14.7 µM; in assay [10] it was 1.14 µM; in [4] it was 1.49 µM; in assay [7], 5.48 µM; in assay [5], 5.48 µM. Also, the TGI worked out at 2.35 µM in [11] and 27.5 µM in [6].
